Data as given in PubChem BioAssay (NCI).
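GI50 marks 50% less growth. TGI: total growth inhibition.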

Experiments:
Experiment in all cases: DTP human tumour cell line panel, 384-well format
DU-145 prostate = tested on: DU-145 prostate
NCI-H23 lung = tested on: NCI-H23 lung
NCI-H460 NSCLC = tested on: NCI-H460 NSCLC
SNB-19 CNS = tested on: SNB-19 CNS
HL-60(TB) leukemia = tested on: HL-60(TB) leukemia
MALME-3M melanoma = tested on: MALME-3M melanoma
CCRF-CEM leukemia = tested on: CCRF-CEM leukemia
OVCAR-4 ovarian = tested on: OVCAR-4 ovarian
HCC-2998 colon = tested on: HCC-2998 colon
SF-268 CNS = tested on: SF-268 CNS
M14 melanoma = tested on: M14 melanoma
TK-10 renal = tested on: TK-10 renal
786-0 renal = tested on: 786-0 renal
U251 glioblastoma = tested on: U251 glioblastoma
UACC-62 melanoma = tested on: UACC-62 melanoma
SF-539 CNS = tested on: SF-539 CNS
UO-31 renal = tested on: UO-31 renal
HOP-92 NSCLC = tested on: HOP-92 NSCLC
ACHN renal = tested on: ACHN renal
OVCAR-5 ovarian = tested on: OVCAR-5 ovarian
UACC-257 melanoma = tested on: UACC-257 melanoma
PC-3 prostate = tested on: PC-3 prostate
SK-OV-3 ovarian = tested on: SK-OV-3 ovarian
HCT-15 colon = tested on: HCT-15 colon
COLO 205 colon = tested on: COLO 205 colon
SR leukemia = tested on: SR leukemia
OVCAR-3 ovarian = tested on: OVCAR-3 ovarian
BT-549 breast = tested on: BT-549 breast
CAKI-1 renal = tested on: CAKI-1 renal
SK-MEL-5 melanoma = tested on: SK-MEL-5 melanoma
OVCAR-8 ovarian = tested on: OVCAR-8 ovarian
SNB-75 CNS = tested on: SNB-75 CNS
HS 578T breast = tested on: HS 578T breast
SW-620 colon = tested on: SW-620 colon
NCI/ADR-RES ovarian = tested on: NCI/ADR-RES ovarian
MDA-MB-435 melanoma = tested on: MDA-MB-435 melanoma
NCI-H226 lung = tested on: NCI-H226 lung
SN12C renal = tested on: SN12C renal
LOX IMVI melanoma = tested on: LOX IMVI melanoma
MDA-MB-468 breast = tested on: MDA-MB-468 breast
HT29 colon = tested on: HT29 colon
T-47D breast = tested on: T-47D breast
K-562 leukemia = tested on: K-562 leukemia
HOP-62 NSCLC = tested on: HOP-62 NSCLC
IGROV1 ovarian = tested on: IGROV1 ovarian
A498 renal = tested on: A498 renal
A549 NSCLC = tested on: A549 NSCLC
EKVX NSCLC = tested on: EKVX NSCLC
RPMI-8226 leukemia = tested on: RPMI-8226 leukemia
SK-MEL-28 melanoma = tested on: SK-MEL-28 melanoma
NCI-H522 lung = tested on: NCI-H522 lung
KM12 colon = tested on: KM12 colon
SF-295 CNS = tested on: SF-295 CNS
RXF 393 renal = tested on: RXF 393 renal
MOLT-4 leukemia = tested on: MOLT-4 leukemia
NCI-H322M lung = tested on: NCI-H322M lung
MDA-MB-231 breast = tested on: MDA-MB-231 breast
MCF7 breast = tested on: MCF7 breast

CN1CCN(c2nc(C3=C(c4c[nH]c5ccccc45)C(=O)NC3=O)c3ccccc3n2)CC1
GI50 (DU-145 prostate): 16.3 µM | TGI (DU-145 prostate): 32.6 µM | GI50 (NCI-H23 lung): 16.1 µM | TGI (NCI-H23 lung): 29.8 µM | GI50 (NCI-H460 NSCLC): 18.6 µM | TGI (NCI-H460 NSCLC): 32.6 µM | GI50 (SNB-19 CNS): 19.8 µM | TGI (SNB-19 CNS): 39.5 µM | GI50 (HL-60(TB) leukemia): 15 µM | TGI (HL-60(TB) leukemia): 28.2 µM | GI50 (MALME-3M melanoma): 4.68 µM | TGI (MALME-3M melanoma): 16.2 µM | GI50 (CCRF-CEM leukemia): 13.1 µM | TGI (CCRF-CEM leukemia): 25.9 µM | GI50 (OVCAR-4 ovarian): 21.8 µM | TGI (OVCAR-4 ovarian): 44.6 µM | GI50 (HCC-2998 colon): 17.7 µM | TGI (HCC-2998 colon): 31.6 µM | GI50 (SF-268 CNS): 18.1 µM | TGI (SF-268 CNS): 32.3 µM | GI50 (M14 melanoma): 13.9 µM | TGI (M14 melanoma): 26.8 µM | GI50 (TK-10 renal): 17.8 µM | TGI (TK-10 renal): 44.2 µM | GI50 ([…]-0 renal): 13.8 µM | TGI (786-0 renal): 26.9 µM | GI50 (U251 glioblastoma): 16.1 µM | TGI (U251 glioblastoma): 29.9 µM | GI50 (UACC-62 melanoma): 15.4 µM | TGI (UACC-62 melanoma): 28.8 µM | GI50 (SF-539 CNS): 15 µM | TGI (SF-539 CNS): 28.3 µM | GI50 (UO-31 renal): 17.9 µM | TGI (UO-31 renal): 44.9 µM | GI50 (HOP-92 NSCLC): 15.8 µM | TGI (HOP-92 NSCLC): 29.4 µM | GI50 (ACHN renal): 15.5 µM | TGI (ACHN renal): 30 µM | GI50 (OVCAR-5 ovarian): 20.8 µM | TGI (OVCAR-5 ovarian): 44 µM | GI50 (UACC-257 melanoma): 13.6 µM | TGI (UACC-257 melanoma): 26.5 µM | GI50 (PC-3 prostate): 17.5 µM | TGI (PC-3 prostate): 34.3 µM | GI50 (SK-OV-3 ovarian): 18.1 µM | TGI (SK-OV-3 ovarian): 38.8 µM | GI50 (HCT-15 colon): 12.1 µM | TGI (HCT-15 colon): 28.4 µM | GI50 (COLO 205 colon): 6.82 µM | TGI (COLO 205 colon): 19.6 µM | GI50 (SR leukemia): 7.06 µM | TGI (SR leukemia): 19.7 µM | GI50 (OVCAR-3 ovarian): 15.8 µM | TGI (OVCAR-3 ovarian): 30.7 µM | GI50 (BT-549 breast): 13.5 µM | TGI (BT-549 breast): 26.3 µM | GI50 (CAKI-1 renal): 16.3 µM | TGI (CAKI-1 renal): 32.3 µM | GI50 (SK-MEL-5 melanoma): 5.58 µM | TGI (SK-MEL-5 melanoma): 18.7 µM | GI50 (OVCAR-8 ovarian): 13.8 µM | TGI (OVCAR-8 ovarian): 27.6 µM | GI50 (SNB-75 CNS): 19.9 µM | TGI (SNB-75 CNS): 37.3 µM | GI50 (HS 578T breast): 16.8 µM | TGI (HS 578T breast): 30.5 µM | GI50 (SW-620 colon): 18.5 µM | TGI (SW-620 colon): 32.6 µM | GI50 (NCI/ADR-RES ovarian): 19.5 µM | TGI (NCI/ADR-RES ovarian): 41.3 µM | GI50 (MDA-MB-435 melanoma): 16.6 µM | TGI (MDA-MB-435 melanoma): 30.2 µM | GI50 (NCI-H226 lung): 13.4 µM | TGI (NCI-H226 lung): 30.3 µM | GI50 (SN12C renal): 13.2 µM | TGI (SN12C renal): 26.3 µM | GI50 (LOX IMVI melanoma): 16.1 µM | TGI (LOX IMVI melanoma): 29.7 µM | GI50 (MDA-MB-468 breast): 18.3 µM | TGI (MDA-MB-468 breast): 32.5 µM | GI50 (HT29 colon): 13.9 µM | TGI (HT29 colon): 27.4 µM | GI50 (T-47D breast): 20.2 µM | TGI (T-47D breast): 35.7 µM | GI50 (K-562 leukemia): 12.2 µM | TGI (K-562 leukemia): 24.7 µM | GI50 (HOP-62 NSCLC): 13.7 µM | TGI (HOP-62 NSCLC): 26.7 µM | GI50 (IGROV1 ovarian): 18.1 µM | TGI (IGROV1 ovarian): 34.5 µM | GI50 (A498 renal): 15.3 µM | TGI (A498 renal): 28.6 µM | GI50 (A549 NSCLC): 16.9 µM | TGI (A549 NSCLC): 36.6 µM | GI50 (EKVX NSCLC): 17.8 µM | TGI (EKVX NSCLC): 33.2 µM | GI50 (RPMI-8226 leukemia): 10.1 µM | TGI (RPMI-8226 leukemia): 21.7 µM | GI50 (SK-MEL-28 melanoma): 16.4 µM | TGI (SK-MEL-28 melanoma): 30 µM | GI50 (NCI-H522 lung): 15.4 µM | TGI (NCI-H522 lung): 28.7 µM | GI50 (KM12 colon): 3.7 µM | TGI (KM12 colon): 15.4 µM | GI50 (SF-295 CNS): 18.6 µM | TGI (SF-295 CNS): 32.7 µM | GI50 (RXF 393 renal): 15.1 µM | TGI (RXF 393 renal): 28.4 µM | GI50 (MOLT-4 leukemia): 13.1 µM | TGI (MOLT-4 leukemia): 25.8 µM | GI50 (NCI-H322M lung): 16.3 µM | TGI (NCI-H322M lung): 31.2 µM | GI50 (MDA-MB-231 breast): 15.4 µM | TGI (MDA-MB-231 breast): 30.7 µM | GI50 (MCF7 breast): 10.9 µM | TGI (MCF7 breast): 23 µM
